Results as given in patent US11020409B2, “Broad antiviral therapy with membrane modifying oxysterols” (priority 2012, dated 2021).
“And” between values parts separate entries of the source, which are not always exact repeats. Identical values can stand only once. Like-named read-outs stand apart in the source and are kept apart here.

Legend:
[1] = tested on: HIV NL4-3 encoding Vpr-BlaM (NL4-3/BlaM); format: cell-based, human-immunodeficiency virus
HIV NL4-3 = format: cell-based, human-immunodeficiency virus
HIV-IIIB pseudovirus = format: cell-based, human-immunodeficiency virus
VSV-GFP [2] = test: microbe, parasite or virus in culture; format: cell-based, vesicular stomatitis virus
[3] = tested on: RVFV (MP12 vaccine strain); format: cell-based, Rift Valley Fever Virus
NL4-3-GFP = format: cell-based, human-immunodeficiency virus
[4] = tested on: Nipah virus (Bangladesh strain); format: cell-based
VSV = format: cell-based, vesicular stomatitis virus
[5] = tested on: Rift Valley Fever Virus ZH501 (RVFV); format: cell-based
VSV-G/BlaM = format: cell-based, vesicular stomatitis virus
VSVΔG-Luc/G pseudovirus = format: cell-based, vesicular stomatitis virus
VSV-GFP [6] = format: cell-based, vesicular stomatitis virus
[7] = tested on: Nipah fusion (F) and attachment (G) proteins; format: cell-based, Nipah virus
HIV NL4-R3A = test: HIV infection in DKO-hu humanized mice; format: in vivo, HIV-1
[8] = tested on: replication-competent VSV; format: cell-based, vesicular stomatitis virus
pseudotyped HIV-IIIB = format: cell-based, human-immunodeficiency virus
[9] = tested on: Russian Spring-Summer Encephalitis Virus (RSSEV); format: cell-based
Ebola Zaire-GFP (EBOV) = format: cell-based, Ebola virus
adenovirus-GFP = format: cell-based

`c1cc(CN2CCCNCCNCCCNCC2)ccc1CN1CCCNCCNCCCNCC1` [AMD3100, reference compound] was tested, and the NL4-3/Bla entry [1] was “abrogated”.

With `CC(C)CC[C@H](O)[C@@H](C)[C@H]1CC[C@H]2[C@@H]3CC=C4C[C@@H](O)CC[C@]4(C)[C@H]3CC[C@]12C` [22S-HC, 22-(S)-hydroxycholesterol, reference compound] the “effect on HIV p24 expression” value (HIV NL4-3) was “no effect”.

With `Cc1cn([C@H]2C[C@H](N=[N+]=[N-])[C@@H](CO)O2)c(=O)[nH]c1=O` [AZT, reference compound] the “inhibition of luciferase expression from single round infection” value (HIV-IIIB pseudovirus) was ~70%.

For `CC(C)CC[C@@H](O)[C@@H](C)[C@H]1CC[C@H]2[C@@H]3CC=C4C[C@@H](O)CC[C@]4(C)[C@H]3CC[C@]12C` [22R-HC, 22-(R)-hydroxycholesterol, reference compound], the “antiviral effect on VSV-GFP” value (VSV-GFP [2]) was “did not confer antiviral effect”.

In the case of `C[C@H](CCCC(C)(C)O)[C@H]1CC[C@H]2[C@@H]3CC=C4C[C@@H](O)CC[C@]4(C)[C@H]3CC[C@]12C` [25HC, 25-hydroxycholesterol], the “replication of RVFV (MP12), dose dependence” value [3] is reported as “dose-dependent manner”, the “GFP expression from NL4-3-GFP (HIV transcription and translation)” value (NL4-3-GFP) is reported as “did not suppress GFP expression” and the “HIV p24 expression in supernatants of transfected cells (budding)” value (NL4-3-GFP) is reported as “did not affect”. For the same compound, the “replication of Nipah, dose dependence” value [4] was “dose-dependent manner”, the “replication of live Nipah (Bangladesh)” value [4] was “inhibited replication” and the “LDH in supernatants of cells” value (HEK293T) was “did not increase LDH”. For the same compound, the LDH level (HEK293T) was “increased”, the “VSV binding (VSV genomic RNA)” value (VSV) was “did not inhibit binding significantly” and the “replication of live RVFV” value [5] was “inhibited replication”. The VSV-G/BlaM entry (VSV-G/BlaM) was “dose-dependent inhibition”, the IC50 (VSV-GFP [2]; Vesicular stomatitis virus, HEK-293T, read-out: IC50 of inhibition of VSV-GFP expression by FACs) was ~1000 nM and the “VSV-G mediated infection, addition concurrently or 1 hpi” value (VSVΔG-Luc/G pseudovirus) was “not significantly inhibited”. For the same compound, the “inhibition of VSVΔG-Luc expression, pre-treatment” value (VSVΔG-Luc/G pseudovirus) was “greater inhibition”, the “inhibition of luciferase expression from single round infection” value (HIV-IIIB pseudovirus) was > 50% and the “inhibition of p24 expression compared to vehicle” value (HIV NL4-3) was ~80%. For the same compound, the VSV replication (VSV-GFP [6]) was “reduced VSV replication”, the syncytia formation [7] was “less syncytia formation” and the “reduction of fusion (nuclei per syncytia) relative to ethanol control” value ([7]; 2 uM) was ~50%. The “reduction of fusion (nuclei per syncytia) relative to ethanol control” value ([7]; 10 uM) was ~60%, the “reduction of HIV RNA (copies/mL) in serum vs vehicle-treated mice” value (HIV NL4-R3A; 50 mg/kg i.p. 12 h prior to infection and every day, 7 dpi, P<0.0001) was > 80% and the “HIV p24 in CD4 T-cells from spleens” value (HIV NL4-R3A; 50 mg/kg i.p. daily, 14 dpi) was “significantly lower”. For the same compound, the “HIV-mediated CD4 T-cell depletion in peripheral blood leukocytes” value (HIV NL4-R3A; 50 mg/kg i.p. daily, CD3+ T-cell population, P<0.05) was “prevented HIV-mediated CD4 T-cell depletion”, the “HIV-mediated CD4 T-cell depletion in the spleen” value (HIV NL4-R3A; 50 mg/kg i.p. daily, P=0.06) was “less significant” and the “reduction in the amount of VSV produced (viral genome copies by qRT-PCR)” value [8] was > 80%. The “infectious titer of viruses from treated cells normalized for viral gRNA” value ([8]; 2.5 uM) was “equivalent plaque forming units”, the “inhibition of lateRT expression” value (pseudotyped HIV-IIIB) was > 99% and ~70% and the “decrease in NL4-3/Bla blue-green ratio at endpoint” value [1] was ~60%. For the same compound, the “reduction in cells expressing cleaved CCF2-AM by FACS” value [1] was > 85%, the “replication of live RSSEV” value [9] was “inhibited replication” and the “replication of live Ebola (EBOV-Zaire)” value (Ebola Zaire-GFP (EBOV)) was “inhibited replication”. The “adenovirus coexpressing GFP measured by FACS” value (adenovirus-GFP) was “not affected”.

In the case of `CN(C)CCCN1c2ccccc2Sc2ccc(Cl)cc21` [CPZ, reference compound], the “VSV binding (VSV genomic RNA)” value (VSV) is reported as “did not inhibit binding significantly”.

For `Cc1c(O)cccc1C(=O)N[C@@H](CSc1ccccc1)[C@H](O)CN1C[C@H]2CCCC[C@H]2C[C@H]1C(=O)NC(C)(C)C` [Nelfinavir, reference compound], the “inhibition of p24 expression in supernatants” value (NL4-3-GFP) was > 50%.
